ChEMBL document CHEMBL2380312, “Discovery of the first histone deacetylase 6/8 dual inhibitors” (J Med Chem, 2013)
Calls of active or inactive are those of the source. No cut-off for these calls is given here.

How the values were obtained:
[1] = target: Histone deacetylase 4 (Homo sapiens, UniProt P56524); assay: Inhibition of HDAC4 (unknown origin) after 60 mins by fluorescence assay
[2] = target: T1, Protein deacetylase HDAC6 (Homo sapiens, UniProt Q9UBN7); assay: Inhibition of HDAC6 (unknown origin) after 60 mins by fluorescence assay
T1 sequence (Q9UBN7 whole entry): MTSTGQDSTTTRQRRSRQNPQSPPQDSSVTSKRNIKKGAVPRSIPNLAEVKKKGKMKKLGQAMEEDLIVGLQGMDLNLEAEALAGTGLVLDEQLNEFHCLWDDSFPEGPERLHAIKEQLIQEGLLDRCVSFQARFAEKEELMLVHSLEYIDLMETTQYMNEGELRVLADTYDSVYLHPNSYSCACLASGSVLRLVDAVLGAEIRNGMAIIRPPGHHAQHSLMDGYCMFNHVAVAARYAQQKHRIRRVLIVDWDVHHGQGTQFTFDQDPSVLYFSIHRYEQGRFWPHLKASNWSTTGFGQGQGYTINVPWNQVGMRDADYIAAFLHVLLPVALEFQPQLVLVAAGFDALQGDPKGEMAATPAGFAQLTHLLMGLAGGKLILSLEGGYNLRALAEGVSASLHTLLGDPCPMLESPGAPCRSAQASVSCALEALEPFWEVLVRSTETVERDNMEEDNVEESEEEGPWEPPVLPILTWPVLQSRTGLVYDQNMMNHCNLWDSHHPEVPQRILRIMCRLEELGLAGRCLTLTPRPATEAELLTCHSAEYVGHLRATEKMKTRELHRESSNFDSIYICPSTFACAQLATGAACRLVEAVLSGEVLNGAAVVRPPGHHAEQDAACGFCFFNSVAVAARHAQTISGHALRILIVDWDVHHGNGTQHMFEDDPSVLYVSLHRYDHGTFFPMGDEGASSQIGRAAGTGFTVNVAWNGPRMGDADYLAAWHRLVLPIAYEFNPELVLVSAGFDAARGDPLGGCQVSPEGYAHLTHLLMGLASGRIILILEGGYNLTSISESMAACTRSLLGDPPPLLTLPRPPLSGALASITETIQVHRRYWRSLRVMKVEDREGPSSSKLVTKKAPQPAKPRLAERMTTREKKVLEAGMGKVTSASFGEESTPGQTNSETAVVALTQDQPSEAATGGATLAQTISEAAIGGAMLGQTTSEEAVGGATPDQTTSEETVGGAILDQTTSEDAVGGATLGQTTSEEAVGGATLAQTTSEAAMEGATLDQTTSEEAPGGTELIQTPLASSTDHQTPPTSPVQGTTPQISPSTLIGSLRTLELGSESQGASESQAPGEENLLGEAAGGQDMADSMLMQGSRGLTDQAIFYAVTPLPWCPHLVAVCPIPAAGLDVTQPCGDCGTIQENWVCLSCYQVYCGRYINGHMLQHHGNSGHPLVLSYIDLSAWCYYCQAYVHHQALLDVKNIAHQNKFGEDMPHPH

[3] = target: T2, Histone deacetylase 8 (Homo sapiens, UniProt Q9BY41); assay: Inhibition of HDAC8 (unknown origin) after 60 mins by fluorescence assay
T2 sequence (Q9BY41 whole entry): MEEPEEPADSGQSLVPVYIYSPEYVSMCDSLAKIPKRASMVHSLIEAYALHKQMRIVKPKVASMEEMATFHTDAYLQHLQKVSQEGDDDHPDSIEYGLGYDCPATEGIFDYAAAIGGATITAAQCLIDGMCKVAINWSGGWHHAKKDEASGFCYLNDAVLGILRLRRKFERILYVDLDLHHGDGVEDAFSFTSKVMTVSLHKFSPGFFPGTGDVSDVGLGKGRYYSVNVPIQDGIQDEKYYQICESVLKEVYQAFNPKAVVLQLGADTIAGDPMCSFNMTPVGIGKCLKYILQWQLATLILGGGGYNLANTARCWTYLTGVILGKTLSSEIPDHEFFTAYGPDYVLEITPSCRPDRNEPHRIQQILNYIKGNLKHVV

[4] = target: T3, Histone deacetylase 2 (Homo sapiens, UniProt Q92769); assay: Inhibition of HDAC2 (unknown origin) after 60 mins by fluorescence assay
T3 sequence (Q92769 whole entry): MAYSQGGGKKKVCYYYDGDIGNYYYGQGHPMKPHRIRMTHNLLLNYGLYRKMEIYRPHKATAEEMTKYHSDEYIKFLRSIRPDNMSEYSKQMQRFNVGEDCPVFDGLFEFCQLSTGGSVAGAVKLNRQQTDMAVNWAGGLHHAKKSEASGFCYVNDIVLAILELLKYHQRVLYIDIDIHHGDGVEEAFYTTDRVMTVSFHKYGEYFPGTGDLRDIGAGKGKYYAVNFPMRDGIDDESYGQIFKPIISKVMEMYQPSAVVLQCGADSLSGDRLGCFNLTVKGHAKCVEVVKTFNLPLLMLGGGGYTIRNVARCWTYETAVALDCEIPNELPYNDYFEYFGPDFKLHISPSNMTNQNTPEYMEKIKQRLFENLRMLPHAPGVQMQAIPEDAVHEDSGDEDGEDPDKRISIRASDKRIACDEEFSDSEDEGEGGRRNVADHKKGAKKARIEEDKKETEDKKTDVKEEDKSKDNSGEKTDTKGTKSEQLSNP

[5] = species on record: Homo sapiens; assay: Selectivity ratio of IC50 for HDAC4 (unknown origin) to IC50 for HDAC8 (unknown origin)
[6] = target: T3, Histone deacetylase 2; conditions: HeLa, at 10 µM
Description: Inhibition of HDAC2 in human HeLa cells assessed as increase in histone H3 acetylation at 10 uM after 48 hrs by Western blotting analysis

[7] = species on record: Homo sapiens; assay: Selectivity ratio of IC50 for HDAC4 (unknown origin) to IC50 for HDAC6 (unknown origin)
[8] = species on record: Homo sapiens; assay: Selectivity ratio of IC50 for HDAC2 (unknown origin) to IC50 for HDAC8 (unknown origin)
[9] = target: Histone deacetylase 9 (Homo sapiens, UniProt Q9UKV0); assay: Inhibition of HDAC9 (unknown origin) after 60 mins by fluorescence assay
Chain of Histone deacetylase 9 (Q9UKV0 whole entry): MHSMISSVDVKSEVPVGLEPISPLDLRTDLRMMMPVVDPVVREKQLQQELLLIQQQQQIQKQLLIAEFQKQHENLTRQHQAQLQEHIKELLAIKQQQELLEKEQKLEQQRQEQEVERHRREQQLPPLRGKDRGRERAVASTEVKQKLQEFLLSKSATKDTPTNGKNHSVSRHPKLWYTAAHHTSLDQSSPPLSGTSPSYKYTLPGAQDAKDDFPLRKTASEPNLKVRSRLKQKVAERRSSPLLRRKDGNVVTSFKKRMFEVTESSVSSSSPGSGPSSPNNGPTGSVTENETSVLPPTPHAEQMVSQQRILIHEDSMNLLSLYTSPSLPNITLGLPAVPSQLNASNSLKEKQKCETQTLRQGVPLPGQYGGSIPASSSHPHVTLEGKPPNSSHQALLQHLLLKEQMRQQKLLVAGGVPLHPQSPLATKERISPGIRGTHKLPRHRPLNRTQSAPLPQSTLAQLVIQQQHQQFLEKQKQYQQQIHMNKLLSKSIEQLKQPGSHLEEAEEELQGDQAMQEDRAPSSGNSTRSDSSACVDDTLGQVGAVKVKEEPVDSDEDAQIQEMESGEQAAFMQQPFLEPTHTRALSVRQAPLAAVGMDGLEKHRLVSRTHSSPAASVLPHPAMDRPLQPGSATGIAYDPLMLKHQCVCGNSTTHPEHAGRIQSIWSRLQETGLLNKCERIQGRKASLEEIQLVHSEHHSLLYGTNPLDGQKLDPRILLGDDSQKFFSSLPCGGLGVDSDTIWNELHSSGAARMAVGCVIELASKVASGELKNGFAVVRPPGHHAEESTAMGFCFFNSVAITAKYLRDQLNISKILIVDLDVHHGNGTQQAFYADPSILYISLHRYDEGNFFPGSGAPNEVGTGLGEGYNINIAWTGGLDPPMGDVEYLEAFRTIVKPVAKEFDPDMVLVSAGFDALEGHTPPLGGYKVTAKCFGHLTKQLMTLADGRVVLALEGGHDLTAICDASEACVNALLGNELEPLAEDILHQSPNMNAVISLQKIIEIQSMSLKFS

[10] = target: Histone deacetylase 5 (Homo sapiens, UniProt Q9UQL6); assay: Inhibition of HDAC5 (unknown origin) after 60 mins by fluorescence assay
Chain of Histone deacetylase 5 (Q9UQL6 whole entry): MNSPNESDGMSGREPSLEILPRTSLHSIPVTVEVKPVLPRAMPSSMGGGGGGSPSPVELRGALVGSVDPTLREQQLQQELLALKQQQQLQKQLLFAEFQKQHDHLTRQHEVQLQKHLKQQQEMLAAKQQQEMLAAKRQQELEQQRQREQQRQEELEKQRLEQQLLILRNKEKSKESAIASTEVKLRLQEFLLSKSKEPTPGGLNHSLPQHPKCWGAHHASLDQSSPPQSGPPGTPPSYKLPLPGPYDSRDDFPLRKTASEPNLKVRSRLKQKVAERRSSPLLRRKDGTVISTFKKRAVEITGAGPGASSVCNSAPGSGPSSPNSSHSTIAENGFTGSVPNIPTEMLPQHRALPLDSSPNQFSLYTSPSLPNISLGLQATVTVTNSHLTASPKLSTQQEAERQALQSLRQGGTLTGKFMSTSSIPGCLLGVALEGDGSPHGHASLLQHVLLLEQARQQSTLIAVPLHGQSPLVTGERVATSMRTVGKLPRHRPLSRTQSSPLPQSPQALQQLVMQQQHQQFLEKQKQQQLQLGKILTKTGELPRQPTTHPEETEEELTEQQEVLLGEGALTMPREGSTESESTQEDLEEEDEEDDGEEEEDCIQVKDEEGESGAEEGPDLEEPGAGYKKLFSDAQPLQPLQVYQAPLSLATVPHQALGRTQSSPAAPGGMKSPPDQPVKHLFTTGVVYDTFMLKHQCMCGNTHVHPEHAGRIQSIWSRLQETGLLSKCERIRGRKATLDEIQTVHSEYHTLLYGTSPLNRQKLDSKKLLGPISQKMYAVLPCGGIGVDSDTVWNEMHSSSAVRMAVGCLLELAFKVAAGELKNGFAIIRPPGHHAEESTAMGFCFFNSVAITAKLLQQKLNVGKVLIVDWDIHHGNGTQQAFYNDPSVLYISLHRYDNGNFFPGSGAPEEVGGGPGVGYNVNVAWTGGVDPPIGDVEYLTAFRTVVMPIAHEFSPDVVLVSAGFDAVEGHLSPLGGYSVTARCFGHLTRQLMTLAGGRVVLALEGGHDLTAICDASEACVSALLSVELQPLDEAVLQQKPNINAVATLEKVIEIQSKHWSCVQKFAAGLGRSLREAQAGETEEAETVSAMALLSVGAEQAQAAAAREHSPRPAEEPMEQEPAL

[11] = target: Histone deacetylase 3 (Homo sapiens, UniProt O15379); assay: Inhibition of HDAC3 (unknown origin) after 60 mins by fluorescence assay
Chain of Histone deacetylase 3 (O15379 whole entry): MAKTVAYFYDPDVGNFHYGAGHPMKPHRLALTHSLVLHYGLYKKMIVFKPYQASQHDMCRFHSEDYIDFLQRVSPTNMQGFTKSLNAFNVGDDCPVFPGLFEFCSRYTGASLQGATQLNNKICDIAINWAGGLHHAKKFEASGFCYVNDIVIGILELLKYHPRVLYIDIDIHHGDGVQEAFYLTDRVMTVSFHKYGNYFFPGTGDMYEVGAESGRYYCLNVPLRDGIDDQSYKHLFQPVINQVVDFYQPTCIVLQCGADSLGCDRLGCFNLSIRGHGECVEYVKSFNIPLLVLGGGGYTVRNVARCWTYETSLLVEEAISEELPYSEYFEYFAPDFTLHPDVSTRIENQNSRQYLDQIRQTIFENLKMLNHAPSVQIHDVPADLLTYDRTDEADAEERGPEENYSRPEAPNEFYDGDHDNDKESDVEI

[12] = target: T4, Histone deacetylase 7 (Homo sapiens, UniProt Q8WUI4); assay: Inhibition of HDAC7 (unknown origin) after 60 mins by fluorescence assay
T4 sequence (Q8WUI4 whole entry): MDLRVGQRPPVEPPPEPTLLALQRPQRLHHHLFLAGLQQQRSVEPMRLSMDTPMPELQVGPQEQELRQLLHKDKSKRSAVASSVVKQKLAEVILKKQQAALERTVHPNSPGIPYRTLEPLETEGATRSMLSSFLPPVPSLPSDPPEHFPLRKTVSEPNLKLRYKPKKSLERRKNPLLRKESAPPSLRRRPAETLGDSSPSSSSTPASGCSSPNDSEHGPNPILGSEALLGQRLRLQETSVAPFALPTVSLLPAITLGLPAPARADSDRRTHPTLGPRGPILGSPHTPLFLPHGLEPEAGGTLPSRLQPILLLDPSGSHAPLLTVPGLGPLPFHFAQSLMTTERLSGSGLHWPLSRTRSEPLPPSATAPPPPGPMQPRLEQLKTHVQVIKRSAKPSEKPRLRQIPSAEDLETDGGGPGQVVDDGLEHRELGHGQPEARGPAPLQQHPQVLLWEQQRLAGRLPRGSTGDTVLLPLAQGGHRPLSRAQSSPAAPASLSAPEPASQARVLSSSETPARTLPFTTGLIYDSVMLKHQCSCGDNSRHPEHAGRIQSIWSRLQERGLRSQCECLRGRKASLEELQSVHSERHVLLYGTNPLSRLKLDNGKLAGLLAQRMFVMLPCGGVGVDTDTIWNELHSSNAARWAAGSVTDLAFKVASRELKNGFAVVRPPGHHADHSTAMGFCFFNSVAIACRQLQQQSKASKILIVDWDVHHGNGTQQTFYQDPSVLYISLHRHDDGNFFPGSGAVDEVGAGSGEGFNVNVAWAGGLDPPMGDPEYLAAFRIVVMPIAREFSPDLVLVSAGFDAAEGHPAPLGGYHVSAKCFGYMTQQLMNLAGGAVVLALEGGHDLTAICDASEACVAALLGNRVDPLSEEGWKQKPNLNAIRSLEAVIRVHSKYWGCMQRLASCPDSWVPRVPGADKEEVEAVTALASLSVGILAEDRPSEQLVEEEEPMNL

[13] = species on record: Homo sapiens; assay: Selectivity ratio of IC50 for HDAC2 (unknown origin) to IC50 for HDAC6 (unknown origin)
[14] = target: Histone deacetylase 1 (Homo sapiens, UniProt Q13547); assay: Inhibition of HDAC1 (unknown origin) after 60 mins by fluorescence assay
Chain of Histone deacetylase 1 (Q13547 whole entry): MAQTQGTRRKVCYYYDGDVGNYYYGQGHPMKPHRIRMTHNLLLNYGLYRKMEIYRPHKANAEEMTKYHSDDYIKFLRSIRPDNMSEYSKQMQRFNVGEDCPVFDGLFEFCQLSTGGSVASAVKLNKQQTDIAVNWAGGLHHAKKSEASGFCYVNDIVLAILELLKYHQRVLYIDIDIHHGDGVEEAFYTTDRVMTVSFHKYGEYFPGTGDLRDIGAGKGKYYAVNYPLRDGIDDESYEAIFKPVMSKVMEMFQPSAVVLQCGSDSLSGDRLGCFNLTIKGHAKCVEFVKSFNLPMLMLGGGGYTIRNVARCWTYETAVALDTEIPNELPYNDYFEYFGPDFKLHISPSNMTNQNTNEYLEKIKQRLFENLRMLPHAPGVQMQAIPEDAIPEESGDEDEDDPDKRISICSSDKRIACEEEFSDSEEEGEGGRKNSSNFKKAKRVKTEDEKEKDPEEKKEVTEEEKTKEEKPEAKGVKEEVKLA

Chain of Histone deacetylase 4 (P56524 whole entry): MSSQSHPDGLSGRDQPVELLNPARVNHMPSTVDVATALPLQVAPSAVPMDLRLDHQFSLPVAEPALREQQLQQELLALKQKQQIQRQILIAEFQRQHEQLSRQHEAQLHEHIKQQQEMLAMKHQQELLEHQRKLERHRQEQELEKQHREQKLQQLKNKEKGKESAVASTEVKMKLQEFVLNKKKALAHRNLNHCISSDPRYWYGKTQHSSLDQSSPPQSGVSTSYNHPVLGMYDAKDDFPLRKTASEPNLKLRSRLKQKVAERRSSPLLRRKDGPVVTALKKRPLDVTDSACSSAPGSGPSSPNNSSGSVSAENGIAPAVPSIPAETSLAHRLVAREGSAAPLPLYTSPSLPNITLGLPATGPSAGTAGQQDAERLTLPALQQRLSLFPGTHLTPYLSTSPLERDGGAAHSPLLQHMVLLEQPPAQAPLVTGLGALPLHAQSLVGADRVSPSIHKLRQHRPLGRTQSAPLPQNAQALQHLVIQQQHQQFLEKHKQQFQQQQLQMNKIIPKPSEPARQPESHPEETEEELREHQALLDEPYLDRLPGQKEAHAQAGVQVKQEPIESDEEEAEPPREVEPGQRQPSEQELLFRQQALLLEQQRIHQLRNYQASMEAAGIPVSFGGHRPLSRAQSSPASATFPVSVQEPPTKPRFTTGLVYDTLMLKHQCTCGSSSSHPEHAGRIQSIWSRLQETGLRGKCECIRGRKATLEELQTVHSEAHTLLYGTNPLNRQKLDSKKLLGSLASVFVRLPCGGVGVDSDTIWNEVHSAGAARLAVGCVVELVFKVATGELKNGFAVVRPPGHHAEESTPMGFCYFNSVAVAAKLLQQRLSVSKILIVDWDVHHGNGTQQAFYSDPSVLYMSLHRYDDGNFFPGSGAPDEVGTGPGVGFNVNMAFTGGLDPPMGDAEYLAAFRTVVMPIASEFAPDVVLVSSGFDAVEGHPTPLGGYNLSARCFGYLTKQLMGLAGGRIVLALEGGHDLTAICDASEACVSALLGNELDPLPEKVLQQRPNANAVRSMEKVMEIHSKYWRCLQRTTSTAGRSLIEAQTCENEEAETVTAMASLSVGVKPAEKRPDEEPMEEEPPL

| SMILES | IC50 [1] [µM] | IC50 [2] [nM] | IC50 [3] [nM] | IC50 [4] [µM] | Ratio IC50 [5] | inhibition [6] | Ratio IC50 [7] | Ratio IC50 [8] | IC50 [9] [µM] | IC50 [10] [µM] | IC50 [11] [µM] | IC50 [12] [µM] | Ratio IC50 [13] | IC50 [14] [µM] |
| --- | --- | --- | --- | --- | --- | --- | --- | --- | --- | --- | --- | --- | --- | --- |
| O=C(NO)c1cccc(C(=O)NCCc2cccnc2)c1 | > 33 | 59 | 420 | 20 | – | – | – | – | – | – | – | – | – | – |
| O=C(NO)c1cccc(CNc2ccccc2)c1 | > 33 | 1300 | 1700 | > 33 | – | – | – | – | – | – | – | – | – | – |
| O=C(/C=C/c1cccc(C(=O)NO)c1)Nc1ccccc1 | 14 | 21 | 37 | 4.8 | > 130 | Active | > 130 | > 130 | 12 | 26 | 18 | 8.4 | > 130 | 6.1 |
| Cc1cccc(C(=O)NO)c1 | > 33 | 650 | 3300 | > 33 | – | – | – | – | – | – | – | – | – | – |
| CNC(=O)c1cccc(C(=O)NO)c1 | > 33 | 2500 | 14000 | > 33 | – | – | – | – | – | – | – | – | – | – |
| O=C(NO)c1cccc(C(=O)Nc2ccccc2)c1 | > 33 | – | – | – | – | – | – | – | – | – | – | – | – | – |
| O=C(NO)c1cccc(C(=O)NCCc2ccccc2)c1 | – | – | – | 9 | – | Active | – | – | > 33 | > 33 | 23 | – | – | 12 |
| O=C(NO)c1cccc(C(=O)NCc2ccccc2)c1 | > 33 | 34 | 210 | 11 | > 50 | – | > 50 | > 50 | – | – | – | – | > 50 | – |
